Data taken from patent US10864211B2, “Hydroxy isoxazole compounds useful as GPR120 agonists” (Merck Sharp & Dohme Corp., priority 2016, dated 2020).
pEC50: −log10 of the molar value. Where a name gives a salt, the structure may show the parent alone.

Target: T1, human GPR120 (Homo sapiens, UniProt Q5NUL3)
T1 construct: expressed in transfected cells; host or cells: CHO-K1
T1 sequence (Q5NUL3 1-361): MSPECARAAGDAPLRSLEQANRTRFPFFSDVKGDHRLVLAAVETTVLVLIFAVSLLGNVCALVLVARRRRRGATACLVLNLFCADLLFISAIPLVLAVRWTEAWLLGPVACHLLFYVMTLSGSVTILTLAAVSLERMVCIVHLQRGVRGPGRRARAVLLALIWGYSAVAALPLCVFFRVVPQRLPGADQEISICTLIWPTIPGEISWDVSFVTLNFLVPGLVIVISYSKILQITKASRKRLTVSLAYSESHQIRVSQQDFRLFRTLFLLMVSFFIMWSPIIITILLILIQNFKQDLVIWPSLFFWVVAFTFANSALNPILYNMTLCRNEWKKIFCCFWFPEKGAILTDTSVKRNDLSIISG
Assay: Human GPR120 IP1 assay (inositol phosphate turnover)
Type: cell-based
Settings: IP1 accumulation in CHO-K1 cells stably expressing the short form of human GPR120
Procedure, shortened: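 Human receptor (short form) was stably expressed in CHO-K1 cells and rat receptor in HEK293 cells. Cells were exposed to compound for 60 min at 37° C in kit stimulation buffer. IP1 was quantified by HTRF 665/620 nm ratio against a standard curve, normalized to a reference compound, with EC50 from 4-parameter fits.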

SMILES	pEC50
Oc1cc(-c2ccc(O[C@H]3C[C@@H](OCc4cccc(C(F)(F)F)c4)C3)nc2)on1 [Example 74, 5-(3-hydroxyisoxazol-5-yl)-2-[(cis-3-{[3-(trifluoromethyl)benzyl]oxy}cyclobutyl)oxy]pyridinium trifluoroacetate]	7.96
Oc1cc(-c2cnc(O[C@H]3C[C@@H](COc4ccccc4)C3)cn2)on1 [Example 83, sodium 5-(5-{[cis-3-(phenoxymethyl)cyclobutyl]oxy}pyrazin-2-yl)isoxazol-3-olate]	7.77
Oc1cc(-c2ccc(O[C@H]3C[C@@H](c4ccnc(OC5CC5)c4)C3)nc2)on1 [Example 32, 5-[6-({cis-3-[2-(cyclopropyloxy)pyridin-4-yl]cyclobutyl}oxy)pyridin-3-yl]isoxazol-3-ol]	7.80
Oc1cc(-c2cnc(O[C@H]3C[C@@H](c4cccc5ccccc54)C3)cn2)on1 [Example 43, 5-{5-[(cis-3-naphthalen-1-ylcyclobutyl)oxy]pyrazin-2-yl}isoxazol-3-ol]	6.89
Oc1cc(-c2ccc(OCC3CC(Oc4ccccc4)C3)nc2)on1 (stereo not drawn) [Example 64, ammonium 5-{6-[(3-phenoxycyclobutyl)methoxy]pyridin-3-yl}isoxazol-3-olate]	5.70
Oc1cc(-c2cnc(O[C@H]3C[C@@H](c4ccc(OC5CC5)cc4)C3)cn2)on1 [Example 4, sodium 5-[5-({cis-3-[4-(cyclopropyloxy)phenyl]cyclobutyl}-oxy)pyrazin-2-yl]isoxazol-3-olate]	7.08
CC(C)Oc1cc([C@]2(F)C[C@@H](Oc3cnc(-c4cc(O)no4)cn3)C2)ccn1 [Example 100, sodium 5-[5-({cis-3-fluoro-3-[2-(propan-2-yloxy)pyridin-4-yl]cyclobutyl}oxy)pyrazin-2-yl]isoxazol-3-olate]	6.82
Oc1cc(-c2ccc(OC3CCC(c4cccc(OC(F)(F)F)c4)C3)nc2)on1 (single isomer, unassigned) [Example 117, 5-(3-hydroxyisoxazol-5-yl)-2-({3-[3-(trifluoromethoxy)phenyl]cyclopentyl}oxy)pyridinium trifluoroacetate]	7.23
COc1cc(OC)cc([C@H]2C[C@@H](Oc3cnc(-c4cc(O)no4)cn3)C2)c1 [Example 54, ammonium 5-(5-{[cis-3-(3,5-dimethoxyphenyl)cyclobutyl]oxy}pyrazin-2-yl)isoxazol-3-olate]	7.00
Oc1cc(-c2ccc(OC3CCC(c4cccc(OC(F)(F)F)c4)C3)nc2)on1 (single isomer, unassigned) [Example 119, 5-(6-((3-(3-(trifluoromethoxy)phenyl)cyclopentyl)oxy)pyridin-3-yl)isoxazol-3-ol]	7.92
Oc1cc(-c2ccc(OC3CC(c4ccc(F)cc4)C3)nc2)on1 (stereo not drawn) [Example 35, 5-(6-{[3-(4-fluorophenyl)cyclobutyl]oxy}pyridin-3-yl)isoxazol-3-ol trifluoroacetate]	8.00
Oc1cc(-c2cnc(O[C@H]3C[C@@H](c4ccc(-c5cc(F)ccn5)cc4)C3)cn2)on1 [Example 17, ammonium 5-[5-({cis-3-[4-(4-fluoropyridin-2-yl)phenyl]cyclobutyl}oxy)pyrazin-2-yl]isoxazol-3-olate]	7.07
Oc1cc(-c2cnc(O[C@H]3C[C@@](F)(c4nc5ccccc5s4)C3)cn2)on1 [Example 105, ammonium 5-(5-{[trans-3-(1,3-benzothiazol-2-yl)-3-fluorocyclobutyl]oxy}pyrazin-2-yl)isoxazol-3-olate]	6.63
CCOc1ccc([C@H]2C[C@@H](Oc3ccc(-c4cc(O)no4)cn3)C2)cn1 [Example 22, 2-ethoxy-5-(cis-3-{[5-(3-hydroxyisoxazol-5-yl)pyridin-2-yl]oxy}cyclobutyl)-pyridinium chloride]	7.04
Oc1cc(-c2ccc(O[C@H]3C[C@@H](c4ccnc(C(F)(F)F)c4)C3)nc2)on1 [Example 21, 5-(3-hydroxyisoxazol-5-yl)-2-({cis-3-[2-(trifluoromethyl)-pyridin-4-yl]cyclobutyl}-oxy)pyridinium chloride]	6.60
CC(C)Oc1cc([C@]2(F)C[C@@H](Oc3ccc(-c4cc(O)no4)cn3)C2)ccn1 [Example 99, sodium 5-[6-({cis-3-fluoro-3-[2-(propan-2-yloxy)pyridin-4-yl]cyclobutyl}oxy)pyridin-3-yl]isoxazol-3-olate]	7.77

Results, then the molecule that gave them:

pEC50	SMILES
7.44	Cc1ccc([C@H]2C[C@@H](Oc3cnc(-c4cc(O)no4)cn3)C2)c(F)c1 [Example 46, 5-(5-{[cis-3-(2-fluoro-4-methylphenyl)cyclobutyl]oxy}pyrazin-2-yl)isoxazol-3-ol]
7.31	Oc1cc(-c2cnc(O[C@H]3C[C@@H](c4ccc(OC(F)(F)F)cc4)C3)cn2)on1 [Example 56, 5-[5-({cis-3-[4-(trifluoromethoxy)phenyl]cyclobutyl}oxy)pyrazin-2-yl]isoxazol-3-ol]
6.99	Oc1cc(-c2cnc(O[C@H]3C[C@@H](c4cc(F)cc(OC(F)(F)F)c4)C3)cn2)on1 [Example 3, ammonium 5-[5-({cis-3-[3-fluoro-5-(trifluoromethoxy)-phenyl]cyclobutyl}oxy)pyrazin-2-1]isoxazol-3-olate]
7.07	Oc1cc(-c2cnc(O[C@H]3C[C@@H](c4ccc(OC(F)(F)F)cn4)C3)cn2)on1 [Example 26, 5-[5-({cis-3-[5-(trifluoromethoxy)pyridin-2-yl]cyclobutyl}oxy)pyrazin-2-yl]isoxazol-3-ol]
7.62	Oc1cc(-c2cnc(O[C@H]3C[C@@H](Oc4ccc(F)c(C(F)(F)F)c4)C3)cn2)on1 [Example 70, 5-[5-({cis-3-[4-fluoro-3-(trifluoromethyl)phenoxy]cyclobutyl}oxy)pyrazin-2-yl]isoxazol-3-ol]
7.72	Oc1cc(-c2ccc(O[C@H]3C[C@@H](c4ccc(C(F)(F)F)cn4)C3)nc2)on1 [Example 24, 5-[6-({cis-3-[5-(trifloromethyl)pyridin-2-yl]cyclobutyl}oxy)pyridin-3-yl]isoxazol-3-ol]
6.89	Oc1cc(-c2cnc(O[C@H]3C[C@@H](c4ncc(C(F)(F)F)s4)C3)cn2)on1 [Example 6, 5-[5-({cis-3-[5-(trifluoromethyl)-1,3-thiazol-2-yl]cyclobutyl}oxy)pyrazin-2-yl]isoxazol-3-ol]
8.24	Oc1cc(-c2cnc(O[C@H]3C[C@@H](COc4ccc(F)cc4)C3)cn2)on1 [Example 65, sodium 5-[5-({cis-3-[(4-fluorophenoxy)methyl]-cyclobutyl}oxy)pyrazin-2-yl]isoxazol-3-olate]
